Reference: publication PMC4462585, “Synthesis and Biological Evaluation of 3-Alkyl-1,5-Diaryl-1H-Pyrazoles as Rigid Analogues of Combretastatin A-4 with Potent Antiproliferative Activity” (PLoS ONE, 2015)

Legend:
[1] = system: gastric adenocarcinoma cell line SGC-7901; test: MTT antiproliferative assay, SGC-7901; assay type: cell-based; conditions: Homo sapiens, 72 h drug exposure, triplicate, read-out: Antiproliferative activity (IC50 ± SD) SGC-7901
Excerpt: (§1) Pulmonary adenocarcinoma cell lines (A549) and gastric adenocarcinoma cell lines (SGC-7901) were provided as gifts (purchased from the Cell Resource Center of Shanghai Institutes for Biological Sciences) from the China-Japan Research Institute of Medical and Pharmaceutical Sciences, Shenyang Pharmaceutical University. Fibrosarcoma cell lines (HT-1080) were purchased from the Cell Resource Center of Shanghai Institutes for Biological Sciences. All cells were maintained in DMEM containing 1% antibiotics (100 units of penicillin and […] per mL in 0.9% normal saline) and 10% foetal bovine serum in a humidified atmosphere containing 5% CO2 at 37°C.
(§2) Antiproliferative activities of CA-4 and the target compounds were measured using a colourimetric assay using 3-(4,5-dimethylthiazol-2yl-)-2,5-diphenyltetrazolium bromide (MTT). Approximately 3 × 10^4 cells were seeded in a 96-well plate. After 24 h of incubation at 37°C, cells were exposed to compounds of differing concentrations (0.0008 μg/mL, 0.004 μg/mL, 0.02 μg/mL, 0.10 μg/mL, 0.50 μg/mL, 2.5 μg/mL, 12.5 μg/mL, 62.5 μg/mL) for 72 h. After treatment, cells were washed with 1X PBS followed by addition of 100 μL of 0.05% MTT reagent to each well, followed by incubation for 4 h at 37°C. After incubation, the supernatant from each well was carefully removed and the formazan crystals were dissolved in 100 μL of DMSO. The colour density was measured spectrophotometrically at 490 nm using a microplate reader (SpectraMax Plus384, Molecular Devices Corp., USA). The percentage of cell growth inhibition was calculated as follow: inhibition ratio % = (Acontrol—Atreated) / Acontrol × 100%. The 50% inhibitory concentration (IC50) was defined as the concentration that reduced the absorbance of the untreated wells by 50% of the vehicle in the MTT assay.

[2] = system: pulmonary adenocarcinoma cell line A549; test: MTT antiproliferative assay, A549; assay type: cell-based; conditions: Homo sapiens, 72 h drug exposure, triplicate, read-out: Antiproliferative activity (IC50 ± SD) A549
Excerpt: as §1, §2

[3] = system: fibrosarcoma cell line HT-1080; test: MTT antiproliferative assay, HT-1080; assay type: cell-based; conditions: Homo sapiens, 72 h drug exposure, triplicate, read-out: Antiproliferative activity (IC50 ± SD) HT-1080
Excerpt: as §1, §2

| SMILES | IC50 [1] [µM] | IC50 [2] [µM] | IC50 [3] [µM] | melting point [°C] |
| --- | --- | --- | --- | --- |
| COc1cc(-n2nc(C)cc2-c2ccccc2)cc(OC)c1OC [Compound 7a, 3-Methyl-5-phenyl-1-(3,4,5-trimethoxyphenyl)-1H-pyrazole] | > 100 | > 100 | > 100 | 77 to 78 |
| COc1cc(-c2cc(C)nn2-c2cc(OC)c(OC)c(OC)c2)ccc1O [Compound 7j, 3-Methyl-5-(4-hydroxy-3-methoxyphenyl)-1-(3,4,5-trimethoxyphenyl)-1H-pyrazole] | 25.9 ± 2.3 | > 100 | > 100 | 197 to 198 |
| COc1ccc(-c2c(Br)c(C)nn2-c2cc(OC)c(OC)c(OC)c2)cc1[N+](=O)[O-] [Compound 7n, 4-Bromo-3-methyl-5-(4-methoxy-3-nitrophenyl)-1-(3,4,5-trimethoxyphenyl)-1H-pyrazole] | > 100 | > 100 | > 100 | 182 to 183 |
| CCc1cc(-c2ccc(OC)c([N+](=O)[O-])c2)n(-c2cc(OC)c(OC)c(OC)c2)n1 [Compound 7p, 3-Ethyl-5-(4-methoxy-3-nitrophenyl)-1-(3,4,5-trimethoxyphenyl)-1H-pyrazole] | > 100 | > 100 | > 100 | 151 to 152 |
| CCCc1cc(-c2ccc(OC)c([N+](=O)[O-])c2)n(-c2cc(OC)c(OC)c(OC)c2)n1 [Compound 7q, 3-Propyl-5-(4-methoxy-3-nitrophenyl)-1-(3,4,5-trimethoxyphenyl)-1H-pyrazole] | > 100 | > 100 | > 100 | 149 to 150 |
| CCCc1cc(-c2ccc(OC)c(N)c2)n(-c2cc(OC)c(OC)c(OC)c2)n1 [Compound 7s, 3-Propyl-5-(3-amino-4-methoxyphenyl)-1-(3,4,5-trimethoxyphenyl)-1H-pyrazole] | 35.7 ± 0.08 | 56.6 ± 1 | 23.2 ± 0.11 | 125 to 126 |
| COc1cc(-c2cc(C)nn2-c2ccccc2)cc(OC)c1OC [Compound 8a, 3-Methyl-1-phenyl-5-(3,4,5-trimethoxyphenyl)-1H-pyrazole] | > 100 | > 100 | > 100 | 88 to 89 |
| COc1cc(-c2cc(C)nn2-c2cc([N+](=O)[O-])ccc2C)cc(OC)c1OC [Compound 8d, 3-Methyl-1-(2-methyl-5-nitrophenyl)-5-(3,4,5-trimethoxyphenyl)-1H-pyrazole] | 31.1 ± 2.5 | 48.6 ± 1.1 | > 100 | 102 to 103 |
| COc1ccc(-n2nc(C)cc2-c2cc(OC)c(OC)c(OC)c2)cc1[N+](=O)[O-] [Compound 8f, 3-Methyl-1-(4-methoxy-3-nitrophenyl)-5-(3,4,5-trimethoxyphenyl)-1H-pyrazole] | > 100 | > 100 | > 100 | 118 to 119 |
| COc1ccc(-n2nc(C)cc2-c2cc(OC)c(OC)c(OC)c2)cc1N [Compound 8g, 3-Methyl-1-(3-amino-4-methoxyphenyl)-5-(3,4,5-trimethoxyphenyl)-1H-pyrazole] | 21.2 ± 1.6 | 21.4 ± 1.2 | 24.7 ± 2.3 | 56 to 57 |
| C=CCOc1cc(-n2nc(C)cc2-c2cc(OC)c(OC)c(OC)c2)ccc1OC [Compound 8h, 3-Methyl-1-(3-allyloxy-4-methoxyphenyl)-5-(3,4,5-trimethoxyphenyl)-1H-pyrazole] | > 100 | > 100 | > 100 | 98 to 99 |

The remaining compounds from weak to strong by IC50 [1], led by results:

| IC50 [1] [µM] | IC50 [2] [µM] | IC50 [3] [µM] | melting point [°C] | SMILES |
| --- | --- | --- | --- | --- |
| 23.6 ± 2.3 | > 100 | > 100 | 78 to 79 | C=CCOc1ccc(-c2cc(C)nn2-c2cc(OC)c(OC)c(OC)c2)cc1OC [Compound 7f, 3-Methyl-5-(4-allyloxy-3-methoxyphenyl)-1-(3,4,5-trimethoxyphenyl)-1H-pyrazole] |
| 20.7 ± 1.2 | > 100 | > 100 | 104 to 105 | COc1cc(-n2nc(C)cc2-c2ccc(F)cc2)cc(OC)c1OC [Compound 7d, 3-Methyl-5-(4-fluorophenyl)-1-(3,4,5-trimethoxyphenyl)-1H-pyrazole] |
| 19 ± 2 | 9.39 ± 0.21 | 28.2 ± 1.9 | 67 to 68 | COc1ccc(-n2nc(C)cc2-c2cc(OC)c(OC)c(OC)c2)cc1 [Compound 8b, 3-Methyl-1-(4-methoxyphenyl)-5-(3,4,5-trimethoxy-phenyl)-1H-pyrazole] |
| 16.4 ± 1.5 | 45.7 ± 3.3 | 23.8 ± 1.8 | 97 to 98 | COc1ccc(-c2c(C=O)c(C)nn2-c2cc(OC)c(OC)c(OC)c2)cc1O [Compound 7l, 4-Formyl-3-methyl-5-(3-hydroxy-4-methoxyphenyl)-1-(3,4,5-trimethoxyphenyl)-1H-pyrazole] |
| 14.3 ± 3.1 | 79.1 ± 2 | 15.9 ± 3.2 | 128 to 129 | COc1ccc(-c2c(Br)c(C)nn2-c2cc(OC)c(OC)c(OC)c2)cc1N [Compound 7o, 4-Bromo-3-methyl-5-(3-amino-4-methoxyphenyl)-1-(3,4,5-trimethoxyphenyl)-1H-pyrazole] |
| 13.7 ± 1.2 | 21.8 ± 2.1 | 15 ± 0.9 | 167 to 168 | COc1ccc(-n2nc(C)cc2-c2cc(OC)c(OC)c(OC)c2)cc1O [Compound 8i, 3-Methyl-1-(3-hydroxy-4-methoxyphenyl)-5-(3,4,5-trimethoxyphenyl)-1H-pyrazole] |
| 11.8 ± 1.2 | 16.2 ± 1 | 15.6 ± 1.5 | 70 to 71 | COc1cc(-c2cc(C)nn2-c2ccc(C)cc2)cc(OC)c1OC [Compound 8c, 3-Methyl-1-(4-methylphenyl)-5-(3,4,5-trimethoxy-phenyl)-1H-pyrazole] |
| 8.42 ± 0.32 | 9.04 ± 0.25 | 7.11 ± 0.23 | 166 to 167 | COc1ccc(-c2c(CO)c(C)nn2-c2cc(OC)c(OC)c(OC)c2)cc1O [Compound 7m, 4-Hydroxymethyl-3-methyl-5-(3-hydroxy-4-methoxy-phenyl)-1-(3,4,5-trimethoxyphenyl)-1H-pyrazole] |
| 6.45 ± 0.22 | > 100 | > 100 | 79 to 80 | C=CCOc1cc(-c2cc(C)nn2-c2cc(OC)c(OC)c(OC)c2)ccc1OC [Compound 7g, 3-Methyl-5-(3-allyloxy-4-methoxyphenyl)-1-(3,4,5-trimethoxyphenyl)-1H-pyrazole] |
| 5.22 ± 0.19 | > 100 | > 100 | 145 to 146 | COc1ccc(-c2cc(C)nn2-c2cc(OC)c(OC)c(OC)c2)cc1[N+](=O)[O-] [Compound 7h, 3-Methyl-5-(4-methoxy-3-nitrophenyl)-1-(3,4,5-trimethoxyphenyl)-1H-pyrazole] |
| 4.62 ± 0.09 | 3.55 ± 0.09 | 8.16 ± 0.12 | 114 to 115 | CCc1cc(-c2ccc(OC)c(N)c2)n(-c2cc(OC)c(OC)c(OC)c2)n1 [Compound 7r, 3-Ethyl-5-(3-amino-4-methoxyphenyl)-1-(3,4,5-trimethoxyphenyl)-1H-pyrazole] |
| 3.05 ± 0.33 | 2.84 ± 0.52 | 5.52 ± 0.26 | 86 to 87 | COc1ccc(-c2cc(C)nn2-c2cc(OC)c(OC)c(OC)c2)cc1F [Compound 7e, 3-Methyl-5-(3-fluoro-4-methoxyphenyl)-1-(3,4,5-trimethoxyphenyl)-1H-pyrazole] |
| 2.43 ± 0.09 | 28.2 ± 1.7 | 11.9 ± 1.9 | 69 to 70 | COc1cc(-c2cc(C)nn2-c2cc(N)ccc2C)cc(OC)c1OC [Compound 8e, 3-Methyl-1-(5-amino-2-methylphenyl)-5-(3,4,5-trimethoxyphenyl)-1H-pyrazole] |
| 0.73 ± 0.09 | 15.2 ± 2.2 | 1.01 ± 0.12 | 118 to 119 | COc1ccc(-c2cc(C)nn2-c2cc(OC)c(OC)c(OC)c2)cc1 [Compound 7b, 3-Methyl-5-(4-methoxyphenyl)-1-(3,4,5-trimethoxy-phenyl)-1H-pyrazole] |
| 0.53 ± 0.2 | 2.35 ± 0.33 | 1.23 ± 0.15 |  | COc1cc(-n2nc(C)cc2-c2ccc(C)cc2)cc(OC)c1OC [Compound 7c, 3-Methyl-5-(4-methylphenyl)-1-(3,4,5-trimethoxy-phenyl)-1H-pyrazole] |
